*: point of attachment. CH2F = FC*
Assays:
Type in all cases: cell-based, human
SNAIL1 in A498 cells = test: SNAIL1 protein expression (western blot), A498; details: 72 h
Experimental: These properties could be the result of the modulation of the effectors controlling EMT, as previously shown in other tumor models. To test this hypothesis, the cells were treated with the inhibitors for 24, 48, and 72 h by changing the media every day, and they were tested for E-cadherin and SNAIL1 expression (Figure 6; detail information of western blots can be seen in Supplementary Figure S7). Figure 6 Effects of the peptides on E-cadherin and SNAIL1 protein expression: (a,b) protein expression of E-cadherin and SNAIL1 in 769-P and (c,d) A498 cells after 24, 48, and 72 h of treatment with the peptides. Data are represented as mean ± SD of at least three replicates. Significance was calculated through one-way ANOVA, followed by Dunnet’s test. Cells were seeded in RPMI containing 10% FBS and cultured for 24 h. Next, 30 µM of inhibitors were added to the culture medium and incubated for 24, 48, and 72 h. Control cells were treated with 0.01% DMSO. At all time points the samples were lysed in 50 mM Tri-HCl (pH 8.0), 100 mM NaCl, 0.5% NP-40, 1% Triton X-100, 1× protease inhibitor cocktail (ThermoFisher, Waltham, MA, USA). The 50 µg of protein lysates were separated by electrophoresis on a 12% SDS-PAGE gel and transferred to the PFDF membranes. […] After an additional wash (three times with PBS), reactive bands were detected by chemiluminescence (Bio-Rad, Irvine, CA, USA). […]

[1] = test system: A498 cells (endolysosomal compartment); test: LysoTracker red fluorescence, A498; details: 20 μM; 48 h; 75 nM LysoTracker red, 1 h, Ex/Em 570/600
Experimental: First, 1.5 × 10^4 769-P or A498 cells were seeded in 96-well plates in full medium. The day after the cells were treated with the peptides for 3 consecutive days to establish 24, 48, and 72 h groups of treatment. LysoTracker Red fluorescence intensity was measured via microplate reader following the protocols described in [75] and applying Ex/Em = 570/600. The cells were incubated with 75 nM of LysoTracker red for 1 h. […]
Figure S6. The effect of the peptide inhibitors on human 769‐P and A498 renal cancer cell on
lysosomes integrity. (a) 769‐P and (b) A498 cells were treated with increasing doses of Ac‐PLVE‐FMK
(red bars) and Ac‐VLPE‐FMK (blue bars) (2.5–250 μM). NR uptake was measured after 24, 48, and 72
h via MTT assay. (c) LysoTracker red evaluation in 769‐P and (d) A498 cells after 24, 48, and 72 h with
the inhibitors (20 μM). Data represent the mean (± S.D.) of at least three independent experiments,
each performed in triplicate. […]

A498 cells = test: Cell viability/proliferation (MTT), A498; details: 2.5–250 μM; for Cell viability: 72 h; for Effect on cell proliferation: within 48 h
Experimental: Figure 3 The effect of the peptide inhibitors on human 769-P and A498 renal cancer cell proliferation and proteolytic activity. (a) 769-P and (b) A498 cells were treated with increasing doses of Ac-PLVE-FMK (red bars) and Ac-VLPE-FMK (blue bars) (2.5–250 μM). Cell proliferation was measured after 24, 48, and 72 h via MTT (3-(4,5-dimethylthiazol-2-yl)-2,5-diphenyltetrazolium bromide) assay. Data represent the mean (±S.D.) of at least three independent experiments, each performed in triplicate. (c) Fluorescence microscopy evaluation and quantification of the cell proteolytic activity in 769-P and (d) A498 cells towards the fluorogenic substrate Ac-PLVQ-AMC in the absence or presence of Ac-PLVE-FMK and Ac-VLPE-FMK. The cells were seeded in a 96-well plate and after exposure to the peptides for 30 min prior incubation with the fluorescent substrate Ac-PLVQ-AMC for 10 min. Data are expressed as mean (±S.D.), and significance was calculated through one-way ANOVA followed by Dunnet’s test. * = p < 0.05, ** = p < 0.01, *** = p < 0.001.
The human renal cancer cell line lines […], A498 were obtained from Dr. Vadim Pokrovsky (purchased from American Type Culture Collection). The cells were cultured in RPMI 1640, supplemented with 10% fetal bovine serum and 1% mixture of antibiotics penicillin-streptomycin (all from Gibco, Waltham, MA, USA) at 5% CO2 and 37 °C in a humidified chamber. Cells were grown to confluence and harvested by trypsinization, using a 0.25 mg/mL trypsin/EDTA solution (ThermoFisher, Carlsbad, CA, USA) and resuspended in the fresh culture medium. Viable cells were enumerated on the Countess II FL Automated Cell Counter (ThermoFisher, Waltham, MA, USA), following Trypan Blue staining. The cell lines were tested for mycoplasma contamination regularly, using the Molecular Probes™ MycoFluor Mycoplasma Detection Kit (ThermoFisher, Waltham, MA, USA).
The cell number was evaluated by counting viable cells using the MTT (3-(4,5-dimethylthiazol-2-yl)-2,5-diphenyltetrazolium bromide) colorimetric assay. A total of 2 × 10^4 cells/well were seeded on independent 96-well plates for each time point (0, 24, 48, and 72 h), with five replicates and treated with two inhibitors (2.5–250 μM). Then, 10 µL of the MTT reagent was added to each well, and cells were incubated for another 5 h. Next, the absorbance value was measured using a CLARIOstar® Plus plate reader (BMG Labtech, Ortenberg, Germany) at 490 nm. Triplicate wells were assayed, and S.D.s were determined.

Substance	SNAIL1 protein expression (SNAIL1 in A498 cells)	LysoTracker red fluorescence [1]	Cell viability (A498 cells)	Effect on cell proliferation (A498 cells)
Ac-PLVE-CH2F [Ac-PLVE-FMK]	dropped to values more similar to the control	decreasing	cell viability increased, reaching values not significantly different from the control cells	cytostatic properties on both cell lines only within 48 h of treatment
Ac-VLPE-CH2F [Ac-VLPE-FMK]	dropped to values more similar to the control	decreasing	cell viability increased, reaching values not significantly different from the control cells	cytostatic properties on both cell lines only within 48 h of treatment

Reference: paper PMC7281206, “Cysteine Cathepsins Inhibition Affects Their Expression and Human Renal Cancer Cell Phenotype” (Cancers, 2020)
